Drawing on ChEMBL document CHEMBL1201862, “PubChem BioAssay data set” (2004), this text covers IC50, EC50 and CC50 for two compounds.

The target in experiment [1] is T1, Rac GTPase-activating protein 1 (Homo sapiens, UniProt Q9H0H5).
T1 sequence (Q9H0H5 whole entry): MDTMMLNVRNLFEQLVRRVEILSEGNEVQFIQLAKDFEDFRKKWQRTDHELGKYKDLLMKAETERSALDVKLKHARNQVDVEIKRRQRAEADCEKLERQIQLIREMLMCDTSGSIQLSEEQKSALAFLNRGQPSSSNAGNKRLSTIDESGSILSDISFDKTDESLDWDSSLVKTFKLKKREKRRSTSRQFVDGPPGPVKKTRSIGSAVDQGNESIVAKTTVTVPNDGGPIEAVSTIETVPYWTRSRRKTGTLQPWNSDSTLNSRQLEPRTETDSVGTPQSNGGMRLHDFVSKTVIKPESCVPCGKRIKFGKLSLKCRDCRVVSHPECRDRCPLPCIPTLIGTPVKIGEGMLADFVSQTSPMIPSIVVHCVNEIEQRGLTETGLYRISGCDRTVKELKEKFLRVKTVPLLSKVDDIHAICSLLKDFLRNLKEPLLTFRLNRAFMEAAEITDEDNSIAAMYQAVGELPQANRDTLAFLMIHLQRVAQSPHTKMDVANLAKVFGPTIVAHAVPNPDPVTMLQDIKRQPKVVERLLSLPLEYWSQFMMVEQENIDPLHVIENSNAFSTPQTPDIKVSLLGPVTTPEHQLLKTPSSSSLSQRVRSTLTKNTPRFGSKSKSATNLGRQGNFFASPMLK
Description: blockers of MgcRacGAP-driven Rac1 GTP hydrolysis – biochemical, ADP Hunter fluorescence, primary and confirmatory, confirmation (AID 624330). It counts as functional.

Experiment [2] has as its target T2, Neuropeptide Y receptor type 2 (Homo sapiens, UniProt P49146).
T2 sequence (P49146 whole entry): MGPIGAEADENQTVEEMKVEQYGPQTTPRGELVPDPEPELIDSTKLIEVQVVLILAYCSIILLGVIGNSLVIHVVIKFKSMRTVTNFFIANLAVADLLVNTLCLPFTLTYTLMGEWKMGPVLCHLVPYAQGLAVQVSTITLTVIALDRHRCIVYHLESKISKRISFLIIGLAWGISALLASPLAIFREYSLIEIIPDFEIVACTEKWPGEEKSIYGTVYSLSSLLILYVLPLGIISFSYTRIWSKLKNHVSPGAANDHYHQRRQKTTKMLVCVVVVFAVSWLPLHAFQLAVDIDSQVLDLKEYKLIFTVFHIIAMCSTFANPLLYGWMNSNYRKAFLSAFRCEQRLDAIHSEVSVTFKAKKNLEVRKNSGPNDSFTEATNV
Description: Fluorescence-based cell-based high-throughput dose response assay for potentiators or agonists of NPY-Y2. [Related pubchem assays: 1539 (Screening assay (NPY-Y2 potentiators or agonists).), 1703 (Screening assay (CNGC inhibitors).), 1359 (Screening assay (NPY-Y2 potentiators or agonists).), 1304 (Screening assay (NPY-Y1 potentiators or agonists).) …. It counts as functional.

In experiment [3] the test system is Streptococcus sp. 'group A'. Description: Streptococcus pyogenes SK(-)GAS viability under kanamycin – luminescence, BacTiterGlo, confirmation, counter-screen for streptokinase expression inhibitor project, dose response (AID 1900). Type of experiment: functional, organism-based. Background: A counterscreen serves to expose hits that act by an unwanted route or on another target.

Experiment [4] has as its target T3, Streptokinase A (Streptococcus pyogenes serotype M1, UniProt P10520).
T3 sequence (P10520 whole entry): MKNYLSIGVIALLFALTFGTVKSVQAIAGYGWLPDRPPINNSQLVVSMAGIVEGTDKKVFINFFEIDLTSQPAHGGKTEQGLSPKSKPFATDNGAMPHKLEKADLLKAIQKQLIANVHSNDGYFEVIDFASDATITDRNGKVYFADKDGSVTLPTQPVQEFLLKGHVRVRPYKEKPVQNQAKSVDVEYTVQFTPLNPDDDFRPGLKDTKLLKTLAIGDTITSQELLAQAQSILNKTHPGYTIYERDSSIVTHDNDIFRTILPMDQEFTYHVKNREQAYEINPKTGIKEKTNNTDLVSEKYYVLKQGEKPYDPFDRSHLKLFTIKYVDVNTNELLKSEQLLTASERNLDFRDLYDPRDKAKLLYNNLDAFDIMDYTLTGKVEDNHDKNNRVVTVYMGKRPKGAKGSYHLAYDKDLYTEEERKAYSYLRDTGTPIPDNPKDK
Description: viability-normalized secreted streptokinase activity reduction – plasminogen activation absorbance, OD405, dose response (AID 1914).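 Also: secreted streptokinase activity via plasminogen activation per viability signal from cell pellet.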 It counts as functional, Streptococcus pyogenes M1 GAS.

In experiment [5] the target is T4, Neuropeptide Y receptor type 1 (Homo sapiens, UniProt P25929).
T4 sequence (P25929 whole entry): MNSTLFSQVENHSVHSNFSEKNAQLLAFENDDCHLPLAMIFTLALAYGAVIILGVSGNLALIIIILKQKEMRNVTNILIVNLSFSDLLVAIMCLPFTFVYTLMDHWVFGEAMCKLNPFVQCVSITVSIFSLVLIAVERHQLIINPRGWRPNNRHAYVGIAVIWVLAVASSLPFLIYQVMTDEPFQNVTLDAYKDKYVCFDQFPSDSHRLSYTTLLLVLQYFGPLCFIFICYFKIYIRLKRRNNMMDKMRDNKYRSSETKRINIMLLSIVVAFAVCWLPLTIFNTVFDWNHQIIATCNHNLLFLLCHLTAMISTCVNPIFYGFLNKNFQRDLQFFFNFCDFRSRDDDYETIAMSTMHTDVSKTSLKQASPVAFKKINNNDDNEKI
Description: Fluorescence-based counterscreen for potentiators or agonists of NPY-Y2: cell-based high-throughput dose response assay for potentiators or agonists of NPY-Y1. It counts as functional.

Experiment [6] concerns HEK293. Description: Fluorescence-based counterscreen for potentiators or agonists of NPY-Y2: cell-based high-throughput dose response assay to identify inhibitors of cyclic nucleotide gated ion channel (CNGC) activity. In this assay, the parental HEK293 cell line transfected with a cyclic-nucleotide gated ion channel (CNGC)-based cAMP sensor is used to measure inhibition of isoproterenol-induced CNGC activity by test compound. Type of experiment: functional. The conditions noted are these: Homo sapiens.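 Also: stimulus is 1 µM isoproterenol at EC100 plus PDE inhibitor Ro 20-1724 at 25 µM.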

Experiment [7] is described as follows: viability loss in HeLa cells – cytotoxicity control for MgcRacGAP inhibitor project, dose response (AID 624300). Type of experiment: functional.
For experiment [8], the target named is G-protein coupled receptor 55 (Homo sapiens, UniProt Q9Y2T6). Kind of experiment: inhibition of LPI-stimulated GPR55 beta-arrestin translocation – imaging, U2OS, beta-arrestin-GFP, LPI agonist, primary screen (AID 2013).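 Also: antagonist potency measured as reduced agonist-driven arrestin aggregation.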 Type of experiment: functional.
Chain of G-protein coupled receptor 55 (Q9Y2T6 whole entry): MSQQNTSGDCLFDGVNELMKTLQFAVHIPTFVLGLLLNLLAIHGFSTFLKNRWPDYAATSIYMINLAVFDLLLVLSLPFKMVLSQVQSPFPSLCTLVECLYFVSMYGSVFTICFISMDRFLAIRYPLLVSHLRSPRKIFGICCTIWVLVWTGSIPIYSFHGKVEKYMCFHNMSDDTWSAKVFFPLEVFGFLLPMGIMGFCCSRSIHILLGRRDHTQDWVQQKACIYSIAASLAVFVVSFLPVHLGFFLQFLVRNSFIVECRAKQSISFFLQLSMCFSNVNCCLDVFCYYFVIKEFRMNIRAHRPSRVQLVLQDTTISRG
Experiment [9] has as its target T4, Neuropeptide Y receptor type 1. Description: Fluorescence-based counterscreen for agonists of NPY-Y2: cell-based high-throughput dose response assay for agonists of NPY-Y1. Type of experiment: functional.
Experiment [10] deals with Streptococcus. Description: GAS UMAA2166 growth inhibition – luminescence, BacTiterGlo, counter-screen for streptokinase expression inhibitor project, dose response (AID 1915).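 Also: potency for reduction of bacterial viability or growth.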 It counts as functional, organism-based.
The target of experiment [11] is T2, Neuropeptide Y receptor type 2. Kind of experiment: Fluorescence-based cell-based high-throughput dose response assay for agonists of NPY-Y2. [Related pubchem assays: 1703 (Screening assay (CNGC inhibitors).), 1359 (Screening assay (NPY-Y2 potentiators or agonists).), 1304 (Screening assay (NPY-Y1 potentiators or agonists).), 1710 (Screening assay (NPY-Y2 agonists).), 1791 (Summary AID.)]. Type of experiment: functional.

Experiment [12] addresses T5, NADPH oxidase 1 (Homo sapiens, UniProt Q9Y5S8).
T5 sequence (Q9Y5S8 whole entry): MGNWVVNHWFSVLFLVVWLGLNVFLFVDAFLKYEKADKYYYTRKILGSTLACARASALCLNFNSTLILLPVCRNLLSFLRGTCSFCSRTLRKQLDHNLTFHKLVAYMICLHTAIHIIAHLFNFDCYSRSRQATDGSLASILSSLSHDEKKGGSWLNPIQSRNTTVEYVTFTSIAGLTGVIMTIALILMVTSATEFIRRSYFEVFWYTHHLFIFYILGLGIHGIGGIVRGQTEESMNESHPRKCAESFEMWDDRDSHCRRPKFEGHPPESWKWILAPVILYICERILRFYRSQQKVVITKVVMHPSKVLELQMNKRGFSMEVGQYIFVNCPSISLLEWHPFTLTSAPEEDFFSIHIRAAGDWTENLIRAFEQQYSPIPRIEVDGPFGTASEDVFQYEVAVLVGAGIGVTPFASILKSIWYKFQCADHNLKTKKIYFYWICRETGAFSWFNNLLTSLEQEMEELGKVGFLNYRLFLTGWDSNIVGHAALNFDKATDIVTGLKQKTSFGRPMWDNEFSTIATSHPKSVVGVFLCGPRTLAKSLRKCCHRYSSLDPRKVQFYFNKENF
Type of experiment: functional, cell-based.

Molecules are shown by their SMILES. The source made the active and inactive calls.

Usually IC50 stands for the midpoint of a concentration-inhibition curve. What is called EC50 is the concentration needed to bring the measured effect to its halfway point. By CC50 is commonly meant the concentration giving 50% cytotoxicity. As to `CCOC(=O)c1nc(Nc2ccc(Nc3ccccc3)cc2)c2ccccc2n1`, the IC50 in experiment [1] is 105 µM (active); in experiment [8], 2.48 µM (active). For the same compound, the EC50 in experiment [2] was 13.2 µM (not active); in [3], 10.2 µM (active); in [4], > 150 µM (not active); in experiment [5], 13.2 µM (not active); in [6], > 11.8 µM (not active); in [9], 10.9 µM (not active). Moreover, the EC50 in [10] is 12.8 µM (active); in [11] it was 10.1 µM (not active). In addition, the CC50 in experiment [7] is 44.8 µM (active).

Consider `O=C(Nc1ccc(NC(=O)c2ccccc2O)cc1)Nc1ccc(OCc2ccccc2)cc1`, for which the IC50 in experiment [12] is on record as > 17 µM (not active).
